{"source": "patent US12002595B2", "about": "“Separation of metal ions by liquid-liquid extraction” (priority 2016, dated 2024)", "key": {"[1]": {"test": "Extraction by TODGA from HNO3 in the absence or presence of 1 mM 343HOPO", "description": "Aqueous phase: 0 or 1 mM 343HOPO in HNO3. Organic phase: 0.1 M TODGA in kerosene. T=25° C. O/A=1, one contact. Points with arrows are lower limits.\nAqueous phase: 1 mM 343HOPO in 3 M HNO3. Organic phase: TODGA in kerosene. O/A=1. One contact. T=25° C.\n(§1) For Example 20—Example 24, pH measurements were performed with a glass electrode (Metrohm-Micro Combi-response to [H+]) calibrated at 25.0° C. using three NIST standards. Extraction samples were analyzed by liquid scintillation counting (LSC). The distribution coefficient, D(M), of a given metal, M, is defined in Eq. 1, where [M]organic and [M]aqueous are the respective total concentrations of M in the organic and aqueous layers, after extraction. Both concentrations are proportional to the volumetric activity (in Bq/L) determined by LSC. The separation factor, SFM1/M2, between two metals, M1 and M2, and extraction yield were calculated according to Eq. 2 and Eq. 3, respectively.\n(§2) In a typical experiment, the solvent (extractant diluted in kerosene) was pre-conditioned by shaking one volume of solvent with three volumes of aqueous phase (typically HNO3) at room temperature for 1 h, thrice. For radioisotope extractions, at least 400 μL aqueous phase (typically containing HNO3, a chelator and a radioisotope) and solvent were placed in air-tight screw-capped plastic tubes, triply-contained, and shaken in a thermoshaker at 300 rpm, 25° C., for at least 30 min. Samples were then centrifuged for 5 min at 3000 rpm and phases separated before analysis. LSC analyses were performed on a Packard Tri-Carb B4430 instrument (Perkin Elmer) after mixing sample aliquots or sample dilution aliquots (10 to 200 μL) with 10 mL of scintillation cocktail (UltimaGold LLT). Samples were counted for at least 6 min and results were background subtracted. The analytical samples contained between 0 and 800,000 CPM. Mixtures of ^249Bk and ^249Cf were analyzed using α/β discrimination and energy windows were set to 0-50 keV for low-energy β particles of ^249Bk and 50-1000 keV for α particles of ^249Cf. ^243Am and ^225Ac samples were counted at secular equilibrium."}, "[2]": {"conditions": "Gd^3+; 25° C.; cited from earlier work"}, "[3]": {"conditions": "La^3+; 25° C.; cited from earlier work"}, "[4]": {"conditions": "Cd^2+; 25° C.; cited from earlier work"}, "[5]": {"test": "Persistence of the metal complex versus acidity", "format": "binding", "conditions": "Ti^4+"}, "[6]": {"test": "Stability constant (log βML) of ligand-metal complexes", "format": "binding", "excerpt": "Thus far, no stability constant has been published for the actinium (Ac^3+) complex of 3,4,3-LI(1,2-HOPO). Based on the ionic radius of Ac^3+ (1.22 Å; See, D. Lundberg, I. Persson, The size of actinoid(III) ions—structural analysis vs. common misinterpretations, Coord. Chem. Rev. 318 (2016) 131-134. doi:10.1016/j.ccr.2016.04.003) and stability constants determined for other actinide and lanthanide ions, the stability of the Ac^3+ complex is expected to be very low, with a log β[AcL]- value of about 12 (FIG. 22). Stability of constant of 3,4,3-LI(1,2-HOPO) complexes with trivalent ions as a function of the ionic radius of the metal is shown in FIG. 22. […] Ionic radius values taken from Lundberg et al. for nona-coordinated metal ions. The Ac^3+ data point is an estimate. See, Lundberg, I. Persson, The size of actinoid(III) ions—structural analysis vs. common misinterpretations, Coord. Chem. Rev. 318 (2016) 131-134. doi:10.1016/j.ccr.2016.04.003; D. Lundberg, I. Persson, L. Eriksson, P. D'Angelo, S. De Panfilis, Structural Study of the N,N′-Dimethylpropyleneurea Solvated Lanthanoid(III) Ions in Solution and Solid State with an Analysis of the Ionic Radii of Lanthanoid(III) Ions, Inorg. Chem. 49 (2010) 4420-4432. doi:10.1021/ic100034q."}, "[7]": {"test": "Extraction by HDEHP at constant pH with 3,4,3-LI(1,2-HOPO) as hold-back reagent", "conditions": "1 mM ligand; for % Extraction: 0.1 M HNO3/1.9 M NaNO3, extraction of ^242Plutonium(IV); for SF Am^3+/Pu^4+: to be seen as lower limit", "description": "(§3) In FIG. 26, aqueous phase: [ligand]=1 mM, buffer 0.1 M HNO3/1.9 M NaNO3. Organic phase: HDEHP diluted in kerosene. [HDEHP]=0.05, 0.10, 0.25, 0.50, 1.0, or 2.0 M. T=25° C. Volume organic phase/Volume aqueous phase=1. Initial metal concentrations: [Pu-242]=10 μM, [Am-243]=0.25 μM, or [Gd-153]=0.16 nM. Phases analyzed after one contact. Contact time: 30 min.\nThe separation factor values given here must been seen as lower limit since the extraction of Pu(IV) is near zero."}, "[8]": {"test": "Extraction by HDEHP at constant pH with 3,4,3-LI(1,2-HOPO) as hold-back reagent", "conditions": "1 mM ligand; for % Extraction: 0.1 M HNO3/1.9 M NaNO3, extraction of ^153Gadolinium(III); for SF Gd^3+/Pu^4+: to be seen as lower limit", "description": "as §3\nThe separation factor values given here must been seen as lower limit since the extraction of Pu(IV) is near zero. […]"}, "[9]": {"test": "Extraction by TODGA from HNO3 in the absence or presence of 1 mM 343HOPO", "description": "Organic phase: 0.1 M TODGA in kerosene. Aqueous solvent: HNO3. T=25° C. O/A=1, one contact. Points with arrows are lower limits.\nas §1, §2", "remark": "listed apart in the source"}, "[10]": {"test": "Persistence of the metal complex versus acidity", "format": "binding", "conditions": "Zr^4+"}, "[11]": {"test": "Aqueous solubility of the ligand", "format": "physicochemical", "conditions": "water; room temperature"}}, "note": "Where two headings read alike, the source gives them in different places.", "data": [{"molecule": "O=C(NCCCN(CCCCN(CCCNC(=O)c1cccc(=O)n1O)C(=O)c1cccc(=O)n1O)C(=O)c1cccc(=O)n1O)c1cccc(=O)n1O", "note": "[3,4,3-LI(1,2-HOPO)]", "values": [{"measurement": "SF, isolation of Bk from adjacent actinides and fission products", "setting": "[1]; one-step separation method, summary statement", "result": "> 3×10^6"}, {"measurement": "SFCf/Bk", "setting": "[1]; regardless of the TODGA and HNO3 concentrations", "result": "> 1,000,000"}, {"measurement": "Bk extracted", "setting": "[1]; throughout the acidity range, 1 mM 343HOPO, 0.1 M TODGA", "result": "less than 1%"}, {"measurement": "log βML", "setting": "[2]", "result": "20.5 ± 0.1"}, {"measurement": "log βML", "setting": "[3]", "result": "16.4 ± 0.4"}, {"measurement": "log βML", "setting": "[4]", "result": "16.1 ± 0.3"}, {"measurement": "acidity range over which the ligand stays bound", "setting": "[5]", "result": "from pH 6 to 10 M HCl (at least)"}, {"measurement": "log β[AcL]-", "setting": "[6]; Ac^3+ complex, expected from ionic radius (1.22 Å) and constants of other ions", "result": "about 12"}, {"measurement": "log βML", "setting": "[6]; Ac^3+, estimate based on ionic radius", "result": "10-14"}, {"measurement": "% Extraction", "setting": "[7]; HDEHP 0.05 M", "result": 0.02, "unit": "%"}, {"measurement": "SF Am^3+/Pu^4+", "setting": "[7]; HDEHP 0.05 M", "result": 14}, {"measurement": "% Extraction", "setting": "[7]; HDEHP 0.10 M", "result": 0.02, "unit": "%"}, {"measurement": "SF Am^3+/Pu^4+", "setting": "[7]; HDEHP 0.10 M", "result": 84}, {"measurement": "% Extraction", "setting": "[7]; HDEHP 0.25 M", "result": 0.05, "unit": "%"}, {"measurement": "SF Am^3+/Pu^4+", "setting": "[7]; HDEHP 0.25 M", "result": 236}, {"measurement": "% Extraction", "setting": "[7]; HDEHP 0.50 M", "result": 0.03, "unit": "%"}, {"measurement": "SF Am^3+/Pu^4+", "setting": "[7]; HDEHP 0.50 M", "result": 1450}, {"measurement": "% Extraction", "setting": "[7]; HDEHP 1.00 M", "result": 0.16, "unit": "%"}, {"measurement": "SF Am^3+/Pu^4+", "setting": "[7]; HDEHP 1.00 M", "result": 624}, {"measurement": "% Extraction", "setting": "[7]; HDEHP 2.00 M", "result": 0.21, "unit": "%"}, {"measurement": "SF Am^3+/Pu^4+", "setting": "[7]; HDEHP 2.00 M", "result": 649}, {"measurement": "% Extraction", "setting": "[8]; HDEHP 0.05 M", "result": 4.92, "unit": "%"}, {"measurement": "SF Gd^3+/Pu^4+", "setting": "[8]; HDEHP 0.05 M", "result": 331}, {"measurement": "% Extraction", "setting": "[8]; HDEHP 0.10 M", "result": 23.79, "unit": "%"}, {"measurement": "SF Gd^3+/Pu^4+", "setting": "[8]; HDEHP 0.10 M", "result": 1948}, {"measurement": "% Extraction", "setting": "[8]; HDEHP 0.25 M", "result": 73.91, "unit": "%"}, {"measurement": "SF Gd^3+/Pu^4+", "setting": "[8]; HDEHP 0.25 M", "result": 5976}, {"measurement": "% Extraction", "setting": "[8]; HDEHP 0.50 M", "result": 92.15, "unit": "%"}, {"measurement": "SF Gd^3+/Pu^4+", "setting": "[8]; HDEHP 0.50 M", "result": 39182}, {"measurement": "% Extraction", "setting": "[8]; HDEHP 1.00 M", "result": 97.85, "unit": "%"}, {"measurement": "SF Gd^3+/Pu^4+", "setting": "[8]; HDEHP 1.00 M", "result": 28460}, {"measurement": "% Extraction", "setting": "[8]; HDEHP 2.00 M", "result": 99.26, "unit": "%"}, {"measurement": "SF Gd^3+/Pu^4+", "setting": "[8]; HDEHP 2.00 M", "result": 64723}, {"measurement": "SFU/Pu", "setting": "[9]; 1 mM 343HOPO, 0.1 M TODGA in kerosene", "result": "around 50,000"}, {"measurement": "SF values between the trivalent ions and Pu^4+", "setting": "[9]; 1 mM 343HOPO, 0.1 M TODGA in kerosene, LoD reached", "result": "above 450,000,000"}, {"measurement": "separation factor for redox-free Pu purification against uranyl ions and trivalent actinides or fission products", "setting": "[9]; summary statement", "result": "over 10^8"}, {"measurement": "acidity range over which the ligand stays bound", "setting": "[10]", "result": "from pH 8 to strongly acidic solutions (at least 6 M HCl)"}, {"measurement": "solubility", "setting": "[11]", "result": 1000, "unit": "mM"}]}]}
